Consider one compound from patent publication US20250381179A1, “CHROMAN-BASED COMPOUNDS FOR TREATING CANCER” (priority 2024, published 2025).

For orientation: GI50 means the concentration giving 50% growth inhibition.

The target of one data set is CYP2D6 (Homo sapiens, UniProt P10635). Briefly: CYP2D6 direct inhibition. The note with it: highest concentration evaluated (10 μM). It is filed as in vitro ADME.
The target of another data set is T1, ERa (Homo sapiens, UniProt P03372).
T1 sequence (P03372 1-595): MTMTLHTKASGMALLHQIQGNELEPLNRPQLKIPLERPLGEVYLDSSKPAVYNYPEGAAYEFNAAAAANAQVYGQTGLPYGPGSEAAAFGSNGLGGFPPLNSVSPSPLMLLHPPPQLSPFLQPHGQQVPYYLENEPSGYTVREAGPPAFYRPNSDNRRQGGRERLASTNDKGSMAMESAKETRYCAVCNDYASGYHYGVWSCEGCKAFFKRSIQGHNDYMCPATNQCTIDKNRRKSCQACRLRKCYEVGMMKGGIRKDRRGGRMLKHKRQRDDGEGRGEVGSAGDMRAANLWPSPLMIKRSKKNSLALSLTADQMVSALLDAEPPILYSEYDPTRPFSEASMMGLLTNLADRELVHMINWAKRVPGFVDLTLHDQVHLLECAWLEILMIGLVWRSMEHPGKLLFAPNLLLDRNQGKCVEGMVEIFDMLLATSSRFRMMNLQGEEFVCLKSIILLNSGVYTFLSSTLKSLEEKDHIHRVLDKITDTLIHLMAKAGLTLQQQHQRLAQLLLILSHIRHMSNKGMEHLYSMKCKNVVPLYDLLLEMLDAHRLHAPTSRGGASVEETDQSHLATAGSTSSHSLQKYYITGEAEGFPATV
In words: ERa degradation in ERa-positive breast cancer cell lines. The data set is classed as cell-based. The note with it: multiple ERa-positive breast cancer cell lines, such as MCF7.

The next data set has as its target CYP1A2 (Homo sapiens, UniProt P05177). Briefly: CYP1A2 direct inhibition. The note with it: highest concentration evaluated (10 μM). The data set is classed as in vitro ADME.
The next data set deals with MCF7 cells. In words: MCF7 cell growth inhibition (luminescence-based proliferation assay, CellTiter-Glo). As for the experimental part: MCF7 cells were obtained from American Type Culture Collection (ATCC). For cell growth assay, MCF7 cells were seeded in 96-well plates at 2000 cells/well in 90 μL of DMEM medium containing 10% fetal bovine serum, and then incubated at 37° C. with 5% CO2 in air overnight. The following day, compound (1-g) and compound (1-h) were administered to the cells by using 1000× compound stock solution prepared in DMSO at concentrations of 3, 1, 0.33, 0.11, 0.037, 0.012, 0.0041, 0.0013, and 0.00046 mM. 1000x compound stock solution was first diluted in culturing medium to 10×, then 10 μL compound medium was added to each well in the cell plates. After administration of compound (1-g) and compound (1-h), the cells were then incubated at 37° C. for 6 days. Upon completion, the plates were equilibrated at room temperature for approximately 10 minutes. 100 μL of CellTiter-Glo® Reagent (Promega) was added to each well. The plates were then incubated at room temperature for 10 minutes and luminescence was recorded by EnSpire plate reader (PerkinElmer).
(In ATP-based viability assays light output follows the ATP content of the culture.)

Chain of CYP1A2 (P05177 whole entry): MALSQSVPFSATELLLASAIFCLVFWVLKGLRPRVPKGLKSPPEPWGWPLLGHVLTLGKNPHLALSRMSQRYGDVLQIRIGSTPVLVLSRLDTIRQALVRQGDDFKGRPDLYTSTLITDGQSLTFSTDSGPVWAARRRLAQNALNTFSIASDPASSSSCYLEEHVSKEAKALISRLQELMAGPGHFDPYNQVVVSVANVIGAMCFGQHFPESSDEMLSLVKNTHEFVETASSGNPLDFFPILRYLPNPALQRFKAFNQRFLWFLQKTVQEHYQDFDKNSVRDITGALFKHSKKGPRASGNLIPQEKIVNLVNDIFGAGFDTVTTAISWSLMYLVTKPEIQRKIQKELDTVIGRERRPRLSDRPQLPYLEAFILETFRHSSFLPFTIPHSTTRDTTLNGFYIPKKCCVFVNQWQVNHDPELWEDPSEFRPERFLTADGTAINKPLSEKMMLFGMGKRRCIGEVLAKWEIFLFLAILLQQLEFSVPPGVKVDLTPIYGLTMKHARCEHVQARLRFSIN
Chain of CYP2D6 (P10635 whole entry): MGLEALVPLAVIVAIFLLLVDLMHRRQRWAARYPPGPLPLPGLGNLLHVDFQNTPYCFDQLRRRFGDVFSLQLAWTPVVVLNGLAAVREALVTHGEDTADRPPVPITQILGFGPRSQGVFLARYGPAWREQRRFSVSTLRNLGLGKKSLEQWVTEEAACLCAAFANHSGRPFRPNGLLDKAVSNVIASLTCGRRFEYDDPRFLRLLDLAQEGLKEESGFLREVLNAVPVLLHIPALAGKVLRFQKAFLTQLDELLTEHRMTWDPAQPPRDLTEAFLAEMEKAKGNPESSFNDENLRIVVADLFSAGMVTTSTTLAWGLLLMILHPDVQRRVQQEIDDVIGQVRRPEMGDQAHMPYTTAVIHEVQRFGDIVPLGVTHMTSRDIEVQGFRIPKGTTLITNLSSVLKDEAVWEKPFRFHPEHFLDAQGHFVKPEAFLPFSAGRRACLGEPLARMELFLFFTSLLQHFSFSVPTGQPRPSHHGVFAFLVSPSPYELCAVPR

`O=C1CC[C@H](N2Cc3cc(N4CCN(CC5CCN(c6ccc([C@@H]7c8ccc(O)cc8OC[C@@H]7c7ccccc7)cc6F)CC5)CC4)ccc3C2=O)C(=O)N1` [compound (1-g), (S)-3-(5-(4-((1-(2-fluoro-4-((3S,4R)-7-hydroxy-3-phenylchroman-4-yl)phenyl)piperidin-4-yl)methyl)piperazin-1-yl)-1-oxoisoindolin-2-yl)piperidine-2,6-dione]: the CYP2D6 direct inhibition entry at CYP2D6 is recorded as “did not directly inhibit”. For the same compound, the ERa degradation entry on ERa was “induces rapid ERa degradation”. For the same compound, the “CYP3A time-dependent inhibition” value in the data set with CYP3A is listed as “weak time-dependent inhibition”. For the same compound, the CYP1A2 direct inhibition result at CYP1A2 is recorded as “did not directly inhibit”. For the same compound, where the note is “female, rat, in vivo, po, 28 day”, the “severely toxic dose in 10% of animals (STD10)” value was found to be 270 mg/kg/day. Also, the off-target adverse toxicities entry (rat, in vivo) was “no off-target adverse toxicities observed”. Under “rats, 28-day GLP”, the key organ effects entry is given as “considered on target pharmacological effects”. Besides, the GI50 with MCF7 cells (Homo sapiens, 144 h, MCF7 cells, 6 days, CellTiter-Glo) was found to be 6.2 nM. Further, in the data set on MCF7 cells (MCF7 cell proliferation assay), the “reduced the tumor growth by (FIG. 3A/3B)” value is “about 50%”.
